Reference: patent US8008525B2, “Receptor function regulating agent” (Takeda Pharmaceutical Company Limited, priority 2003, dated 2011)

target: T1, human 14273 receptor (Homo sapiens, UniProt Q5NUL3); assay: Test Example 1: regulating effect for 14273 receptor function (agonist effect), change in intracellular calcium level by FLIPR; assay type: cell-based; conditions: CHO cell line (No. 104) expressing human 14273 receptor, change of fluorescent intensity after 35 seconds
T1 construct: expressed in transfected cells
T1 sequence (Q5NUL3 1-361): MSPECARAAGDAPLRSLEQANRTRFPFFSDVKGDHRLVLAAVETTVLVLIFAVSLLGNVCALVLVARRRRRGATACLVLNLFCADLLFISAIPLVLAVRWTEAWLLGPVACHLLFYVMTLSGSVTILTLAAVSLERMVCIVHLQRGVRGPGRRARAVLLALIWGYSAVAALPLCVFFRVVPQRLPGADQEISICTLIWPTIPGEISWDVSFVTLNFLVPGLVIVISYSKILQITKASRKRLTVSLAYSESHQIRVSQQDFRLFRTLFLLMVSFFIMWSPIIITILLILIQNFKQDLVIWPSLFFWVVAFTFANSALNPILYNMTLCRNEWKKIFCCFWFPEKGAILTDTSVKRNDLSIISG
Experimental: CHO cell lines (No. 104) in which a human 14273 receptor has expressed was diluted to contain 3×10^4/100 μl cells, and dispensed in Black walled 96-well plate (Costar) at a density of 100 μl/well, followed by culturing overnight in a CO2 incubator. A change in intracellular calcium level was measured using FLIPR (Molecular Device). The method is described as below. 50 μg of Fluo-3AM (DOJIN) was dissolved in 21 μl of DMSO (DOJIN) and an equal volume of 20% pluronic acid (Molecular Probes) was added thereto, followed by mixing them. The mixture was added to 10.6 ml of the assay buffer [which is prepared by adding 10 ml of a solution, which is prepared by adding 20 ml of 1 M HEPES (pH 7.4, DOJIN) to 1 L of HBSS (Invitrogen), dissolving 710 mg of probenecid (Sigma) in 5 ml of 1 N NaOH, and further adding 5 ml of the above-mentioned HBSS/HEPES solution and mixing it.] supplemented with 105 μl of fetal bovine serum to prepare a fluorescent dye solution. The medium of the cell plate was removed, the fluorescent dye solution was dispensed in 100 μl each per well. The culturing was performed in a CO2 incubator for 1 hour to incorporate the fluorescent dye into the cells. The cells after culturing were washed with the assay buffer. The compounds to be added to the cells were diluted to each concentration with a buffer solution to which CHAPS (DOJIN) was added in 0.015%, and dispensed in a plate for the test sample. Following the pretreatment above, a change in intracellular calcium level after addition of the compound was determined with FLIPR to investigate the agonist effect. An EC50 value was calculated from dose-reaction curve using the change of fluorescent intensity after 35 seconds from the reaction initiation.

| EC50 [µM] | SMILES |
| --- | --- |
| ≤ 10 | COc1ccc2c(c1)C(Oc1ccc(CCC(=O)O)cc1)C(C)(C)C2 (centres unmarked) [Reference Example 44, 4-[(2,3-Dihydro-6-methoxy-2,2-dimethyl-1H-inden-1-yl)oxy]benzenepropanoic acid] |
| ≤ 10 | CC1(C)Cc2ccc(Cl)cc2C1Oc1ccc(CCC(=O)O)cc1 (centres unmarked) [Reference Example 47, 4-[(6-Chloro-2,3-dihydro-2,2-dimethyl-1H-inden-1-yl)oxy]benzenepropanoic acid] |
| ≤ 10 | Cc1ccccc1COc1c(F)cc(CCC(=O)O)cc1F [Example 42, 3-{3,5-difluoro-4-[(2-methylbenzyl)oxy]phenyl}propanoic acid] |
| ≤ 10 | Cc1ccc(Oc2cccc(COc3c(F)cc(CCC(=O)O)cc3F)c2)cc1 [Example 56, 3-(3,5-difluoro-4-{[3-(4-methylphenoxy)benzyl]oxy}phenyl)propanoic acid] |
| ≤ 10 | COc1cc(COc2ccc(CCC(=O)O)cc2F)cc(OC)c1 [Example 94, 3-{4-[(3,5-dimethoxybenzyl)oxy]-3-fluorophenyl}propanoic acid] |
| ≤ 10 | O=C(O)CCc1ccc(OCc2cccc(Oc3ccccc3)c2)cc1 [Reference Example 8, 4-[(3-Phenoxyphenyl)methoxy]benzenepropanoic acid] |
| ≤ 10 | O=C(O)CCc1cc(F)c(OCc2ccccc2OC2CCCCC2)c(F)c1 [Example 36, 3-(4-{[2-(cyclohexyloxy)benzyl]oxy}-3,5-difluorophenyl)propanoic acid] |
| ≤ 10 | CC(C)Oc1cccc(COc2c(F)cc(CCC(=O)O)cc2F)c1 [Example 10] |
| ≤ 10 | O=C(O)CCc1cc(F)c(OCc2cccc(Oc3ccccn3)c2)c(F)c1 [Example 60, 3-(3,5-difluoro-4-{[3-(pyridin-2-yloxy)benzyl]oxy}phenyl)propanoic acid] |
| ≤ 10 | O=C(O)CCc1ccc(OCc2ccccc2-c2ccccc2)c(Cl)c1 [Example 24, 4-([1,1′-Biphenyl]-2-ylmethoxy)-3-chlorobenzenepropanoic acid] |
| ≤ 10 | Cc1cccc(Oc2cccc(COc3ccc(CCC(=O)O)cc3F)c2)c1 [Example 169, 3-(3-fluoro-4-{[3-(3-methylphenoxy)benzyl]oxy}phenyl)propanoic acid] |
| ≤ 10 | CCOc1cc(COc2ccc(CCC(=O)O)cc2F)cc(OCC)c1 [Example 96, 3-{4-[(3,5-diethoxybenzyl)oxy]-3-fluorophenyl}propanoic acid] |
| ≤ 10 | Cc1cc(CCC(=O)O)ccc1OCc1cccc(Oc2ccccc2)c1 [Example 173, 3-(3-methyl-4-[(3-phenoxybenzyl)oxy]phenyl)propanoic acid] |
| ≤ 10 | CC(C)Oc1cc(COc2ccc(CCC(=O)O)cc2F)cc(Oc2ccccc2)c1 [Example 124, 3-{3-fluoro-4-[(3-isopropoxy-5-phenoxybenzyl)oxy]phenyl}propanoic acid] |
| ≤ 10 | COc1ccc(Oc2cccc(COc3c(F)cc(CCC(=O)O)cc3F)c2)cc1 [Example 46, 3-(3,5-difluoro-4-{[3-(4-methoxyphenoxy)benzyl]oxy}phenyl)propanoic acid] |
| ≤ 10 | COc1cccc(COc2c(F)cc(CCC(=O)O)cc2F)c1 [Example 6, 3,5-Difluoro-4-[(3-methoxyphenyl)methoxy]benzenepropanoic acid] |
| ≤ 10 | Cc1cc(CCC(=O)O)ccc1OCc1cccc(OC(C)C)c1 [Example 178, 3-{4-[(3-isopropoxybenzyl)oxy]-3-methylphenyl}propanoic acid] |
| ≤ 10 | Cc1ccc2c(c1)C(Oc1ccc(CCC(=O)O)cc1)C(C)(C)C2 (centres unmarked) [Reference Example 50, 4-[(2,3-Dihydro-2,2,6-trimethyl-1H-inden-1-yl)oxy]benzenepropanoic acid] |
| ≤ 10 | Cc1ccc(Oc2cccc(COc3ccc(CCC(=O)O)cc3F)c2)cc1 [Example 171, 3-(3-fluoro-4-{[3-(4-methylphenoxy)benzyl]oxy}phenyl)propanoic acid] |
| ≤ 10 | CC1(C)Cc2ccccc2C1Oc1ccc(CCC(=O)O)cc1 (centres unmarked) [Reference Example 25, 4-[(2,3-Dihydro-2,2-dimethyl-1H-inden-1-yl)oxy]benzenepropanoic acid] |

| EC50 [µM] | SMILES |
| --- | --- |
| ≤ 10 | O=C(O)CCc1cc(F)c(OC2CCc3ccccc32)c(F)c1 (centres unmarked) [Reference Example 14, 3,5-Difluoro-4-[(2,3-dihydro-1H-inden-1-yl)oxy]benzenepropanoic acid] |
| ≤ 10 | O=C(O)CCc1cc(F)c(OCc2cccc(Oc3ccccc3)c2)c(F)c1 [Example 2, 3,5-Difluoro-4-[(3-phenoxyphenyl)methoxy]benzenepropanoic acid] |
| ≤ 10 | O=C(O)CCc1ccc(OCc2cccc(-c3ccccc3)c2)c(Cl)c1 [Reference Example 18, 4-([1,1′-Biphenyl]-3-ylmethoxy)-3-chlorobenzenepropanoic acid] |
| ≤ 10 | O=C(O)CCc1ccc(OCc2cccc(Oc3ccccc3)c2)c(Cl)c1 [Example 4, 3-Chloro-4-[(3-phenoxyphenyl)methoxy]benzenepropanoic acid] |
| ≤ 10 | CCOc1cccc(COc2ccc(CCC(=O)O)cc2F)c1C [Example 208, 3-{4-[(3-ethoxy-2-methylbenzyl)oxy]-3-fluorophenyl}propanoic acid] |
| ≤ 10 | O=C(O)CCc1cc(F)c(OCc2cccc(OC3CCCCC3)c2)c(F)c1 [Example 52, 3-(4-{[3-(cyclohexyloxy)benzyl]oxy}-3,5-difluorophenyl)propanoic acid] |
| ≤ 10 | CCOc1cccc(COc2ccc(CCC(=O)O)cc2C)c1 [Example 180, 3-{4-[(3-ethoxybenzyl)oxy]-3-methylphenyl}propanoic acid] |
| ≤ 10 | O=C(O)CCc1cc(F)c(OCc2ccccc2OC2CCCC2)c(F)c1 [Example 28, 3-(4-{[2-(cyclopentyloxy)benzyl]oxy}-3,5-difluorophenyl)propanoic acid] |
| ≤ 10 | O=C(O)CCc1cc(F)c(OCc2cccc(Oc3cccs3)c2)c(F)c1 [Example 64, 3-(3,5-difluoro-4-{[3-(2-thienyloxy)benzyl]oxy}phenyl)propanoic acid] |
| ≤ 10 | O=C(O)CCc1cc(F)c(OCc2ccccc2Oc2ccccc2)c(F)c1 [Example 16, 3,5-Difluoro-4-[(2-phenoxyphenyl)methoxy]benzenepropanoic acid] |
| ≤ 10 | O=C(O)CCc1cc(F)c(OCc2cccc(OC3CCCC3)c2)c(F)c1 [Example 58, 3-(4-{[3-(cyclopentyloxy)benzyl]oxy}-3,5-difluorophenyl)propanoic acid] |
| ≤ 10 | O=C(O)CCc1ccc(OCc2cc(O)cc(Oc3ccccc3)c2)c(F)c1 [Example 118, 3-{3-fluoro-4-[(3-hydroxy-5-phenoxybenzyl)oxy]phenyl}propanoic acid] |
| ≤ 10 | O=C(O)CCc1ccc(OC2CCCc3ccccc32)cc1 (centres unmarked) [Reference Example 20, 4-[(1,2,3,4-Tetrahydronaphthalen-1-yl)oxy]benzenepropanoic acid] |
| ≤ 10 | O=C(O)CCc1cc(F)c(OCc2ccccc2-c2ccccc2)c(F)c1 [Example 20, 4-([1,1′-Biphenyl]-2-ylmethoxy)-3,5-difluorobenzenepropanoic acid] |
| ≤ 10 | O=C(O)CCc1ccc(OCc2ccccc2Oc2ccccc2)c(F)c1 [Example 18, 3-Fluoro-4-[(2-phenoxyphenyl)methoxy]benzenepropanoic acid] |
| ≤ 10 | O=C(O)CCc1ccc(OCc2cccc(Oc3ccccc3)c2)c(F)c1 [Example 12, 3-Fluoro-4-[(3-phenoxyphenyl)methoxy]benzenepropanoic acid] |
| ≤ 10 | CCOc1cccc(COc2ccc(CCC(=O)O)cc2F)c1 [Example 188, 3-{4-[(3-ethoxybenzyl)oxy]-3-fluorophenyl}propanoic acid] |
| ≤ 10 | O=C(O)CCc1cc(F)c(OCc2cccc(Oc3ccc(Cl)cc3)c2)c(F)c1 [Example 48, 3-(4-{[3-(4-chlorophenoxy)benzyl]oxy}-3,5-difluorophenyl)propanoic acid] |
| ≤ 10 | O=C(O)CCc1cc(F)c(OCc2cccc(Oc3ccsc3)c2)c(F)c1 [Example 62, 3-(3,5-difluoro-4-{[3-(3-thienyloxy)benzyl]oxy}phenyl)propanoic acid] |

| SMILES | EC50 [µM] |
| --- | --- |
| CC(C)COc1cccc(COc2c(F)cc(CCC(=O)O)cc2F)c1 [Example 135, 3-{3,5-difluoro-4-[(3-isobutoxybenzyl)oxy]phenyl}propanoic acid] | ≤ 10 |
| CC(C)COc1ccccc1COc1c(F)cc(CCC(=O)O)cc1F [Example 32, 3-{3,5-difluoro-4-[(2-isobutoxybenzyl)oxy]phenyl}propanoic acid] | ≤ 10 |
